Results reported in US4167570A, “2-Methyl-6-alkyl-11-aminoalkyl-6,11-dihydro-5H-pyrido(2,3-B)(1,5)benzodia zepin-5-ones and salts thereof” (Boehringer Ingelheim GmbH, priority 1976, dated 1979).
Counter-ions that a name gives are not always drawn.

Tests used:
[1] = system: bronchial secretion in guinea pigs; experiment: expectorant (bronchosecretolytic) activity, increase in bronchial secretion in anesthetized guinea pigs, peroral administration (Perry & Boyd, modified by Engelhorn & Puschmann); assay type: in vivo; settings: two-hour period, vs untreated controls, male guinea pigs
Experimental: (§1) The bronchosecretolytic activity and the intravenous acute toxicity of the compounds of this invention and of certain related 2-unsubstituted analogs disclosed in German Offenlegungsschrift No. 2,424,811 were ascertained by the standard test methods described below.
The tests for expectorant activity were carried out according to the method of PERRY, W. and BOYD, E.M.; J. Pharmacol. exp. Therap. 73, 65 (1941), as modified by ENGELHORN, R. and PUSCHMANN, S.; Arzneimittel Forsch. 21, 1045 (1971), on male guinea pigs with a body weight of 450 to 550 gm, which were anesthetized by i.p.-administration of a * 25% urethane solution (1,0 g/kg). The substances were administered perorally at the indicated dosages levels, each in 2 ml of distilled water, by means of an esophageal tube. 5 tests were carried out per dosage. The increase in bronchial secretion was calculated from the amount secreted within a two-hour period after administration of the test compound in comparison with the values obtained from untreated control animals, also within a two-hour period.

[2] = acute toxicity, LD50 in the mouse after intravenous administration; settings: in vivo, i.v., NMRI-mice both sexes, deaths within 14 days, Litchfield and Wilcoxon
Experimental: as §1
The acute toxicity was tested in NMRI-mice of both sexes having a body weight of 20 gm after intravenous administration. 0.1 ml of an aqueous 0.9% sodium chloride solution/10 gm of animal was used as a vehicle. The LD50 was calculated according to LITCHFIELD and WILCOXON from the percentage of the animals which died within 14 days after administration of various dosages.

Compound	Average percentage change in amount of bronchial secretion in guinea pigs ([1]; 0.005 μg/kg per os)	Average percentage change in amount of bronchial secretion in guinea pigs ([1]; 0.05 μg/kg per os)	Average percentage change in amount of bronchial secretion in guinea pigs ([1]; 0.5 μg/kg per os)	LD50 at 336 h [2]
CCN(CC)CCCN1c2ccccc2N(C)C(=O)c2cccnc21.Cl [X, 11-(3-Diethylamino-propyl)-6,11-dihydro-6-methyl-5H-pyrido[2,3-b][1,5]benzodiazepin-5-one hydrochloride]	+0%	+13%	+80%	
CCN(CC)CCCN1c2cc(C)c(C)cc2N(C)C(=O)c2ccc(C)nc21.O=C(O)/C=C/C(=O)O [B, 11-(3-Diethylamino-propyl)-6,11-dihydro-2,6,8,9-tetramethyl-5H-pyrido[2,3-b][1,5]benzodiazepin-5-one hydrogen fumarate]	+44%	+83%		9.9 mg/kg
CC(C)N(CCCN1c2ccccc2N(C)C(=O)c2cccnc21)C(C)C.Cl [Z, 6,11-Dihydro-11-(3-diisopropylamino-propyl)-6-methyl-5H-pyrido[2,3-b][1,5]benzodiazepin-5-one hydrochloride]		+27%		
CCN(CCCN1c2ccccc2N(C)C(=O)c2cccnc21)C(C)C [Y, 11-[3-N-ethyl-N-isopropyl-amino)-propyl]-6,11-dihydro-6-methyl-5H-pyrido[2,3-b][1,5]benzodiazepin-5-one hydrochloride]		+10%		30 mg/kg
CCN(CC)CCCN1c2ccccc2N(C)C(=O)c2ccc(C)nc21.Cl [A, 11-(3-Diethylamino-propyl)-6,11-dihydro-2,6-dimethyl-5H-pyrido[2,3-b][1,5]benzodiazepin-5-one hydrochloride]	+44%	+100%		15.4 mg/kg
